Measured values from patent publication US7531506B2, “Process for producing trunkamide a compounds” (Pharma Mar, S.A., priority 2001, dated 2009).
*1 amine or outer side, *2 acyl side, *3 side chain or, on linkers, in order; H or OH if unused. Where a SMILES comes first, the peptide text is derived from it. [ ]: non-standard residue; d: D form. The star is where a group is joined. X1 = O=C([C@@H]1CSC([C@@H](Cc2ccccc2)N[*:1])=N1)[*:2]; X2 = C=CC(C)(C)O[C@H](C)C(N[*:1])C(=O)[*:2]; Allyl(1,1-Me2) = C=CC(C)(C)*

Legend:
Assay type in all cases: cell-based
P388 murine lymphoma = assay: Cytotoxicity, P388 cells; details: read-out: Cytoxicity IC50 P388
From the text: (§1) Cytoxicity of trunkamide A and derivatives IC50 (molar).
(§2) Methodology: after Berjeron et al, Biochem and Bioph Res. Comm., 1984, 121, 3,848854 388=Murine lymphoma. A549=lung carcinoma. . HT-29=human colon carcinoma MEL-28=human melanoma. DU145=human prostate carcinoma.

[1] = system: A549 human lung carcinoma; assay: Cytotoxicity, A549 cells; details: read-out: Cytoxicity IC50 A549
From the text: as §1, §2

MEL-28 human melanoma = assay: Cytotoxicity, MEL28 cells; details: MEL-28 human melanoma cells; read-out: Cytoxicity IC50 MEL28
From the text: as §1, §2

[2] = system: HT-29 human colon carcinoma; assay: Cytotoxicity, HT29 cells; details: HT-29 human colon carcinoma cells; read-out: Cytoxicity IC50 HT29
From the text: as §1, §2

[3] = system: DU145 human prostate carcinoma; assay: Cytotoxicity, DU145 cells; details: read-out: Cytoxicity IC50 DU145
From the text: as §1, §2

Molecule | IC50 (P388 murine lymphoma) [nM] | IC50 [1] [nM] | IC50 (MEL-28 human melanoma) [nM] | IC50 [2] [nM] | IC50 [3] [nM]
Cyclo [Compound 10, Cyclo [L-Phe-Tzn-Thr(rPr)-Ser(rPr)-Ile-Ala-Pro]] | 1200 | 1200 | 1200 | 1200 | 1200
C=CC(C)(C)OC[C@@H]1NC(=O)C([C@@H](C)OC(C)(C)C=C)NC(=O)[C@@H]2CSC(=N2)[C@@H](Cc2ccccc2)NC(=O)[C@@H]2CCCN2C(=O)[C@H](C)NC(=O)[C@H]([C@@H](C)CC)NC1=O (stereo partly drawn) [Compound 9, Cyclo[D-Phe-Tzn-Thr(rPr)-Ser(rPr)-Ile-Ala-Pro]] (cyclo(AP[X1][X2]S(Allyl(1,1-Me2))I)) | 1200 | 1200 | 12000 | 1200 | 1200
Cyclo [Compound 11, Cyclo [L-Phe-Tzn-Thr (tBu)-Ser(tBu)-Ile-Ala-Pro]] | > 6200 | > 6200 | > 6200 | > 6200 | > 6200
Cyclo [Compound 12, Cyclo [L-Phe-Oxa-Thr(tBu)-Ser(tBu)-Ile-Ala-Pro]] | 3100 | 3100 | > 6100 | 3100 | > 6100
